Data taken from US20090143279A1 (priority 2007, published 2009).

System: mitochondrial membrane potential
Format: cell-based, mouse
Conditions: composite Z-score vs mock-treated (DMSO) wells; Conc 20 μM

Row | Compound | ΔΨm
1 | CC(C)=CCc1c(O)cc2oc(C)cc(=O)c2c1O [peucenin] | −0.057
2 | CC(C)=CCc1c(O)cc(C)oc1=O [2-isoprenyl-3-hydroxy-5-methyl-a-pyrone] | −0.641

Same assay, conditions: normalized composite Z-score vs mock-treated (DMSO) wells; Conc 20 μM

Row | Compound | ΔΨm
3 | C=C1C(N)CC2CC1C2(C)C (stereo not drawn) [3-amino-beta-pinene] | −0.519
4 | COc1cc2c(cc1OC)[C@@H]1C(=O)c3ccc4oc(C(C)C)cc4c3O[C@@H]1CO2 [isorotenone, reference compound] | −1.329
5 | muurolladie-3-one | 0.063
6 | C[C@H](CCC(=O)O)[C@H]1CC[C@H]2[C@@H]3CCC4CCCC[C@]4(C)[C@H]3C=C[C@]12C (stereo partly shown) [chol-11-enic acid] | −0.652
7 | OC[C@H]1O[C@@H](O[C@H]2[C@H](O)[C@@H](O)[C@H](O)O[C@@H]2CO)[C@H](O)[C@@H](O)[C@@H]1O [cellobiose (D[+])] | −0.571

System: reactive oxygen species
Format: cell-based, mouse
Conditions: composite Z-score vs mock-treated (DMSO) wells; Conc 20 μM

Row | Compound | ROS
8 | CC(C)=CCc1c(O)cc2oc(C)cc(=O)c2c1O [peucenin] | −0.014
9 | CC(C)=CCc1c(O)cc(C)oc1=O [2-isoprenyl-3-hydroxy-5-methyl-a-pyrone] | 1.032

Same assay, conditions: normalized composite Z-score vs mock-treated (DMSO) wells; Conc 20 μM

Row | Compound | ROS
10 | C=C1C(N)CC2CC1C2(C)C (stereo not drawn) [3-amino-beta-pinene] | 0.421
11 | COc1cc2c(cc1OC)[C@@H]1C(=O)c3ccc4oc(C(C)C)cc4c3O[C@@H]1CO2 [isorotenone, reference compound] | −0.782
12 | muurolladie-3-one | −0.490
13 | C[C@H](CCC(=O)O)[C@H]1CC[C@H]2[C@@H]3CCC4CCCC[C@]4(C)[C@H]3C=C[C@]12C (stereo partly shown) [chol-11-enic acid] | 0.737
14 | OC[C@H]1O[C@@H](O[C@H]2[C@H](O)[C@@H](O)[C@H](O)O[C@@H]2CO)[C@H](O)[C@@H](O)[C@@H]1O [cellobiose (D[+])] | −0.298

System: OXPHOS gene expression
Format: cell-based, mouse
Conditions: composite Z-score vs mock-treated (DMSO) wells; Conc 20 μM

Row | Compound | GE-HTS
15 | CC(C)=CCc1c(O)cc2oc(C)cc(=O)c2c1O [peucenin] | 0.148
16 | CC(C)=CCc1c(O)cc(C)oc1=O [2-isoprenyl-3-hydroxy-5-methyl-a-pyrone] | 0.309

Same assay, conditions: normalized composite Z-score vs mock-treated (DMSO) wells; Conc 20 μM

Row | Compound | GE-HTS
17 | C=C1C(N)CC2CC1C2(C)C (stereo not drawn) [3-amino-beta-pinene] | −1.376
18 | COc1cc2c(cc1OC)[C@@H]1C(=O)c3ccc4oc(C(C)C)cc4c3O[C@@H]1CO2 [isorotenone, reference compound] | −3.751
19 | muurolladie-3-one | −0.747
20 | C[C@H](CCC(=O)O)[C@H]1CC[C@H]2[C@@H]3CCC4CCCC[C@]4(C)[C@H]3C=C[C@]12C (stereo partly shown) [chol-11-enic acid] | −0.069
21 | OC[C@H]1O[C@@H](O[C@H]2[C@H](O)[C@@H](O)[C@H](O)O[C@@H]2CO)[C@H](O)[C@@H](O)[C@@H]1O [cellobiose (D[+])] | −0.127

System: nuOXPHOS transcripts
Format: cell-based, mouse
Conditions: Table 7; C2C12 myotubes, 48 h, composite Z-score

Row | Compound | nucOXPHOS Z
22 | COc1cc2c(cc1OC)[C@@H]1C(=O)c3ccc4oc(C(C)C)cc4c3O[C@@H]1CO2 [isorotenone, reference compound] | −3.02

Same assay, conditions: composite Z-score vs mock-treated (DMSO) wells; Conc 20 μM

Row | Compound | nucOX
23 | CC(C)=CCc1c(O)cc2oc(C)cc(=O)c2c1O [peucenin] | 0.051
24 | CC(C)=CCc1c(O)cc(C)oc1=O [2-isoprenyl-3-hydroxy-5-methyl-a-pyrone] | 0.277

Same assay, conditions: normalized composite Z-score vs mock-treated (DMSO) wells; Conc 20 μM

Row | Compound | nucOX
25 | C=C1C(N)CC2CC1C2(C)C (stereo not drawn) [3-amino-beta-pinene] | −1.341
26 | COc1cc2c(cc1OC)[C@@H]1C(=O)c3ccc4oc(C(C)C)cc4c3O[C@@H]1CO2 [isorotenone, reference compound] | −3.017
27 | muurolladie-3-one | −0.745
28 | C[C@H](CCC(=O)O)[C@H]1CC[C@H]2[C@@H]3CCC4CCCC[C@]4(C)[C@H]3C=C[C@]12C (stereo partly shown) [chol-11-enic acid] | −0.195
29 | OC[C@H]1O[C@@H](O[C@H]2[C@H](O)[C@@H](O)[C@H](O)O[C@@H]2CO)[C@H](O)[C@@H](O)[C@@H]1O [cellobiose (D[+])] | 0.051

System: mtOXPHOS transcripts
Format: cell-based, mouse
Conditions: Table 7; C2C12 myotubes, 48 h, composite Z-score

Row | Compound | mito-OXPHOS Z
30 | COc1cc2c(cc1OC)[C@@H]1C(=O)c3ccc4oc(C(C)C)cc4c3O[C@@H]1CO2 [isorotenone, reference compound] | −4.57

Same assay, conditions: composite Z-score vs mock-treated (DMSO) wells; Conc 20 μM

Row | Compound | mitoOX
31 | CC(C)=CCc1c(O)cc2oc(C)cc(=O)c2c1O [peucenin] | 0.361
32 | CC(C)=CCc1c(O)cc(C)oc1=O [2-isoprenyl-3-hydroxy-5-methyl-a-pyrone] | 0.271

Same assay, conditions: normalized composite Z-score vs mock-treated (DMSO) wells; Conc 20 μM

Row | Compound | mitoOX
33 | C=C1C(N)CC2CC1C2(C)C (stereo not drawn) [3-amino-beta-pinene] | −1.138
34 | COc1cc2c(cc1OC)[C@@H]1C(=O)c3ccc4oc(C(C)C)cc4c3O[C@@H]1CO2 [isorotenone, reference compound] | −4.571
35 | muurolladie-3-one | −0.569
36 | C[C@H](CCC(=O)O)[C@H]1CC[C@H]2[C@@H]3CCC4CCCC[C@]4(C)[C@H]3C=C[C@]12C (stereo partly shown) [chol-11-enic acid] | 0.246
37 | OC[C@H]1O[C@@H](O[C@H]2[C@H](O)[C@@H](O)[C@H](O)O[C@@H]2CO)[C@H](O)[C@@H](O)[C@@H]1O [cellobiose (D[+])] | −0.466

System: cytochrome c
Format: cell-based, mouse
Conditions: composite Z-score vs mock-treated (DMSO) wells; Conc 20 μM

cytochrome c, sequence (P62897 whole entry): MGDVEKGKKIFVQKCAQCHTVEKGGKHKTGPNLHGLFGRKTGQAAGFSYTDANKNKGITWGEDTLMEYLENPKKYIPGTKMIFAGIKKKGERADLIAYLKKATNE

Row | Compound | cyt c
38 | CC(C)=CCc1c(O)cc2oc(C)cc(=O)c2c1O [peucenin] | 0.494
39 | CC(C)=CCc1c(O)cc(C)oc1=O [2-isoprenyl-3-hydroxy-5-methyl-a-pyrone] | −0.568

Same assay, conditions: normalized composite Z-score vs mock-treated (DMSO) wells; Conc 20 μM

Row | Compound | cyt c
40 | C=C1C(N)CC2CC1C2(C)C (stereo not drawn) [3-amino-beta-pinene] | 0.460
41 | COc1cc2c(cc1OC)[C@@H]1C(=O)c3ccc4oc(C(C)C)cc4c3O[C@@H]1CO2 [isorotenone, reference compound] | −3.397
42 | muurolladie-3-one | −0.234
43 | C[C@H](CCC(=O)O)[C@H]1CC[C@H]2[C@@H]3CCC4CCCC[C@]4(C)[C@H]3C=C[C@]12C (stereo partly shown) [chol-11-enic acid] | 0.383
44 | OC[C@H]1O[C@@H](O[C@H]2[C@H](O)[C@@H](O)[C@H](O)O[C@@H]2CO)[C@H](O)[C@@H](O)[C@@H]1O [cellobiose (D[+])] | 0.380

System: C2C12 myotubes
Conditions: composite Z-score vs mock-treated (DMSO) wells; Conc 20 μM

Row | Compound | Viability
45 | CC(C)=CCc1c(O)cc2oc(C)cc(=O)c2c1O [peucenin] | −0.906
46 | CC(C)=CCc1c(O)cc(C)oc1=O [2-isoprenyl-3-hydroxy-5-methyl-a-pyrone] | −1.025

Same assay, conditions: normalized composite Z-score vs mock-treated (DMSO) wells; Conc 20 μM

Row | Compound | Viability
47 | C=C1C(N)CC2CC1C2(C)C (stereo not drawn) [3-amino-beta-pinene] | −0.108
48 | COc1cc2c(cc1OC)[C@@H]1C(=O)c3ccc4oc(C(C)C)cc4c3O[C@@H]1CO2 [isorotenone, reference compound] | −1.954
49 | muurolladie-3-one | −0.720
50 | C[C@H](CCC(=O)O)[C@H]1CC[C@H]2[C@@H]3CCC4CCCC[C@]4(C)[C@H]3C=C[C@]12C (stereo partly shown) [chol-11-enic acid] | −0.456
51 | OC[C@H]1O[C@@H](O[C@H]2[C@H](O)[C@@H](O)[C@H](O)O[C@@H]2CO)[C@H](O)[C@@H](O)[C@@H]1O [cellobiose (D[+])] | 0.390

System: cellular dehydrogenase activity
Conditions: composite Z-score vs mock-treated (DMSO) wells; Conc 20 μM

Row | Compound | MTT
52 | CC(C)=CCc1c(O)cc2oc(C)cc(=O)c2c1O [peucenin] | −1.695
53 | CC(C)=CCc1c(O)cc(C)oc1=O [2-isoprenyl-3-hydroxy-5-methyl-a-pyrone] | 0.055

Same assay, conditions: normalized composite Z-score vs mock-treated (DMSO) wells; Conc 20 μM

Row | Compound | MTT
54 | C=C1C(N)CC2CC1C2(C)C (stereo not drawn) [3-amino-beta-pinene] | −0.906
55 | COc1cc2c(cc1OC)[C@@H]1C(=O)c3ccc4oc(C(C)C)cc4c3O[C@@H]1CO2 [isorotenone, reference compound] | −4.373
56 | muurolladie-3-one | −1.161
57 | C[C@H](CCC(=O)O)[C@H]1CC[C@H]2[C@@H]3CCC4CCCC[C@]4(C)[C@H]3C=C[C@]12C (stereo partly shown) [chol-11-enic acid] | −1.164
58 | OC[C@H]1O[C@@H](O[C@H]2[C@H](O)[C@@H](O)[C@H](O)O[C@@H]2CO)[C@H](O)[C@@H](O)[C@@H]1O [cellobiose (D[+])] | 0.411
